{"source": "patent US20200246493A1", "about": "“DRUG-IODINATED OIL DISPERSION, METHOD FOR PREPARING SAME AND ITS APPLICATION IN EMBOLIZATION TREATMENT FOR LIVER CANCER” (Xiamen University, priority 2019, published 2020)", "conditions": "fluorescence intensity over time", "data": [{"compound": "CC1(C)C(/C=C/C=C/C=C/C=C2\\N(CCCCS(=O)(=O)O)c3ccc4ccccc4c3C2(C)C)=[N+](CCCCS(=O)(=O)[O-])c2ccc3ccccc3c21", "note": "[ICG, indocyanine green]", "values": [{"measurement": "fluorescence half-life", "result": "about three"}]}]}
